Laboratory results reported in patent publication US20050267025A1, “Compositions and methods for treatment of infectious and inflammatory diseases” (priority 2002, published 2005).

Test system: human monocytes
Format: cell-based

In the case of polymyxin B [reference compound], the “effect on IL-10 promotion when added to yeast rCFP32 or CF from WT and mutant Mtb” value is reported as “no effect”.
